Results published in patent publication US20060223879A1, “Non-steroidal farnesoid x receptor modulators” (priority 2002, published 2006).
Like-named read-outs stand apart in the source and are kept apart here.

Biological target: T1, FXR (Homo sapiens, UniProt Q96RI1)
T1 construct: using a full length FXR on a natural response element; expressed in transfected cells
T1 sequence (Q96RI1 1-486): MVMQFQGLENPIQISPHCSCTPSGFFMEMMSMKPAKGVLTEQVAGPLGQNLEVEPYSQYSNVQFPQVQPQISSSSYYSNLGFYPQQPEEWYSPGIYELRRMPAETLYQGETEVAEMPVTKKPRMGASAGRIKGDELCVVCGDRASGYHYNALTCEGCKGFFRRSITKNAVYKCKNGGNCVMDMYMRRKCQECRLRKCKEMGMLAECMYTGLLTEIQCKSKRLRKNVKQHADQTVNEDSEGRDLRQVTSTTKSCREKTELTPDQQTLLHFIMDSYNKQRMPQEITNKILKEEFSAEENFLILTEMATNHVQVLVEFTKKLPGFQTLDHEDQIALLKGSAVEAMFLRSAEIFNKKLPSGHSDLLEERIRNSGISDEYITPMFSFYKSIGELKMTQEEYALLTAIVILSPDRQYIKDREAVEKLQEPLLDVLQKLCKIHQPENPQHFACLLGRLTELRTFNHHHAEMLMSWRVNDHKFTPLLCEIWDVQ
Experiment: cell-based transcription assay, FXR responsive promoter linked to a luciferase reporter
Parameters: RE: scale not given here
Details: for EC50: FXR activation, read-out: EC50; for EC50 / FXR activation (in words): cell-based reporter assay; for RE: RE not defined in the source
Method in brief: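 Cells co-transfected with full-length FXR and a luciferase reporter carrying a natural hormone response element on a minimal promoter.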

Row | SMILES | EC50 (Tables 1-15) [nM] | RE (Tables 1-15) | FXR activation (in words) | EC50 [nM]
1 | COC(=O)/C=C/c1cccc(N(Cc2ccc(-c3ccc(F)c(F)c3)cc2)C(=O)C(C)C)c1 [Compound 214] | 249 | 1.15 |  | 
2 | COC(=O)/C=C/c1cccc(N(Cc2ccc(-c3ccc(F)c(F)c3)cc2)C(=O)NC(C)C)c1 [Compound 215] | 8180 | 0.23 |  | 
3 | COC(=O)/C=C/c1cccc(N(Cc2ccc(-c3ccccc3OC)cc2)C(=O)C2CCCCC2)c1 [Compound 218] | 399 | 0.40 |  | 
4 | COC(=O)/C=C/c1cccc(N(Cc2ccc(-c3ccccc3OC)cc2)C(=O)C(C)C)c1 [Compound 219] | 377 | 0.28 |  | 
5 | COC(=O)/C=C/c1cccc(N(Cc2ccc(-c3ccccc3OC)cc2)C(=O)NC(C)C)c1 [Compound 220] | 4010 | 0.09 |  | 
6 | COC(=O)/C=C/c1cccc(N(Cc2ccc(-c3cc(Cl)cc(Cl)c3)cc2)C(=O)C(C)C)c1 [Compound 221] | 561 | 0.54 |  | 
7 | COC(=O)/C=C/c1cccc(N(Cc2ccc(-c3cc(Cl)cc(Cl)c3)cc2)C(=O)NC(C)C)c1 [Compound 222] | > 10000 | 0.10 |  | 
8 | COC(=O)/C=C/c1cccc(N(Cc2ccc(-c3cccc(OC)c3)cc2)C(=O)NC(C)C)c1 [Compound 225] | 1370 | 0.41 |  | 
9 | CCOc1cccc(-c2ccc(CN(C(=O)NC(C)C)c3cccc(/C=C/C(=O)OC)c3)cc2)c1 [Compound 228] | 2350 | 0.33 |  | 
10 | COC(=O)/C=C/c1cccc(N(Cc2ccc(-c3cccc(Cl)c3)cc2)C(=O)C(C)C)c1 [Compound 233] |  |  | excellent activity | 
11 | COC(=O)/C=C/c1cccc(N(Cc2ccc(-c3cccc(Cl)c3)cc2)C(=O)NC(C)C)c1 [Compound 234] | 1400 | 0.49 |  | 
12 | COC(=O)/C=C/c1cccc(N(Cc2ccc(-c3ccc(C)cc3)cc2)C(=O)NC(C)C)c1 [Compound 237] | 449 | 0.80 |  | 
13 | COC(=O)/C=C/c1cccc(N(Cc2ccc(-c3cccc(C)c3)cc2)C(=O)NC(C)C)c1 [Compound 240] | 1330 | 0.53 |  | 
14 | COC(=O)/C=C/c1cccc(N(Cc2ccc(-c3cc(Cl)ccc3OC)cc2)C(=O)NC(C)C)c1 [Compound 243] | 3080 | 0.17 |  | 
15 | COC(=O)/C=C/c1cccc(N(Cc2ccc(-c3ccc4c(c3)OCO4)cc2)C(=O)C2CCCCC2)c1 [Compound 244] |  | 1.90 | excellent activity | 38
16 | COC(=O)/C=C/c1cccc(N(Cc2ccc(-c3ccc(F)c(Cl)c3)cc2)C(=O)NC(C)C)c1 [Compound 249] | 3050 | 0.41 |  | 
17 | COC(=O)/C=C/c1cccc(N(Cc2ccc(-c3ccc(OC(F)(F)F)cc3)cc2)C(=O)C2CCCCC2)c1 [Compound 250] | 264 | 1.04 |  | 
18 | COC(=O)/C=C/c1cccc(N(Cc2ccc(-c3ccc(OC(F)(F)F)cc3)cc2)C(=O)NC(C)C)c1 [Compound 252] | 7530 | 0.21 |  | 
19 | COC(=O)/C=C/c1cccc(N(Cc2ccc(-c3cccc(OC(F)(F)F)c3)cc2)C(=O)C2CCCCC2)c1 [Compound 253] | 420 | 0.84 |  | 
20 | COC(=O)/C=C/c1cccc(N(Cc2ccc(-c3cccc(OC(F)(F)F)c3)cc2)C(=O)NC(C)C)c1 [Compound 255] | > 10000 | 0.09 |  | 
21 | COC(=O)/C=C/c1cccc(N(Cc2ccc(-c3c(OC)cccc3OC)cc2)C(=O)NC(C)C)c1 [Compound 258] | 561 | 0.10 |  | 
22 | COC(=O)/C=C/c1cccc(N(Cc2ccc(-c3ccc(N(C)C)cc3)cc2)C(=O)C2CCCCC2)c1 [Compound 259] |  | 1.72 | excellent activity | 25
23 | COC(=O)/C=C/c1cccc(N(Cc2ccc(-c3ccc(CC(C)C)cc3)cc2)C(=O)C(C)C)c1 [Compound 263] | 343 | 0.59 |  | 
24 | COC(=O)/C=C/c1cccc(N(Cc2ccc(-c3ccc(C(C)(C)C)cc3)cc2)C(=O)NC(C)C)c1 [Compound 264] | 262 | 1.02 |  | 

Continued, values first:

Row | EC50 (Tables 1-15) [nM] | RE (Tables 1-15) | FXR activation (in words) | EC50 [nM] | SMILES
25 | 51 | 0.98 | excellent activity |  | COC(=O)/C=C/c1cccc(N(Cc2ccc(-c3ccc(SC)cc3)cc2)C(=O)C(C)C)c1 [Compound 216]
26 | 178 | 0.23 |  |  | COC(=O)/C=C/c1cccc(N(Cc2ccc(-c3ccc(SC)cc3)cc2)C(=O)NC(C)C)c1 [Compound 217]
27 | 72 |  | excellent activity |  | COC(=O)/C=C/c1cccc(N(Cc2ccc(-c3cccc(OC)c3)cc2)C(=O)C(C)C)c1 [Compound 224]
28 | 147 | 1.37 |  |  | CCOc1cccc(-c2ccc(CN(C(=O)C3CCCCC3)c3cccc(/C=C/C(=O)OC)c3)cc2)c1 [Compound 226]
29 | 173 | 1.03 |  |  | CCOc1cccc(-c2ccc(CN(C(=O)C(C)C)c3cccc(/C=C/C(=O)OC)c3)cc2)c1 [Compound 227]
30 | 89 | 1.71 | excellent activity |  | COC(=O)/C=C/c1cccc(N(Cc2ccc(-c3ccc(OC)cc3)cc2)C(=O)C2CCCCC2)c1 [Compound 229]
31 | 97 |  | excellent activity |  | COC(=O)/C=C/c1cccc(N(Cc2ccc(-c3ccc(OC)cc3)cc2)C(=O)C(C)C)c1 [Compound 230]
32 | 144 | 1.16 |  |  | COC(=O)/C=C/c1cccc(N(Cc2ccc(-c3ccc(OC)cc3)cc2)C(=O)NC(C)C)c1 [Compound 231]
33 | 94 | 1.56 | excellent activity |  | COC(=O)/C=C/c1cccc(N(Cc2ccc(-c3cccc(Cl)c3)cc2)C(=O)C2CCCCC2)c1 [Compound 232]
34 | 26 | 1.38 | excellent activity |  | COC(=O)/C=C/c1cccc(N(Cc2ccc(-c3ccc(C)cc3)cc2)C(=O)C2CCCCC2)c1 [Compound 235]
35 | 118 | 1.48 | excellent activity |  | COC(=O)/C=C/c1cccc(N(Cc2ccc(-c3ccc(C)cc3)cc2)C(=O)C(C)C)c1 [Compound 236]
36 | 109 | 1.43 | excellent activity |  | COC(=O)/C=C/c1cccc(N(Cc2ccc(-c3cccc(C)c3)cc2)C(=O)C2CCCCC2)c1 [Compound 238]
37 | 163 | 1.09 |  |  | COC(=O)/C=C/c1cccc(N(Cc2ccc(-c3cccc(C)c3)cc2)C(=O)C(C)C)c1 [Compound 239]
38 | 233 | 1.16 |  |  | COC(=O)/C=C/c1cccc(N(Cc2ccc(-c3cc(Cl)ccc3OC)cc2)C(=O)C2CCCCC2)c1 [Compound 241]
39 | 226 | 0.79 |  |  | COC(=O)/C=C/c1cccc(N(Cc2ccc(-c3cc(Cl)ccc3OC)cc2)C(=O)C(C)C)c1 [Compound 242]
40 | 19 | 1.25 | excellent activity |  | COC(=O)/C=C/c1cccc(N(Cc2ccc(-c3ccc4c(c3)OCO4)cc2)C(=O)C(C)C)c1 [Compound 245]
41 | 96 | 1.51 | excellent activity |  | COC(=O)/C=C/c1cccc(N(Cc2ccc(-c3ccc4c(c3)OCO4)cc2)C(=O)NC(C)C)c1 [Compound 246]
42 | 66 | 1.67 | excellent activity |  | COC(=O)/C=C/c1cccc(N(Cc2ccc(-c3ccc(F)c(Cl)c3)cc2)C(=O)C2CCCCC2)c1 [Compound 247]
43 | 129 | 1.64 |  |  | COC(=O)/C=C/c1cccc(N(Cc2ccc(-c3ccc(F)c(Cl)c3)cc2)C(=O)C(C)C)c1 [Compound 248]
44 | 219 | 0.78 |  |  | COC(=O)/C=C/c1cccc(N(Cc2ccc(-c3ccc(OC(F)(F)F)cc3)cc2)C(=O)C(C)C)c1 [Compound 251]
45 | 247 | 0.59 |  |  | COC(=O)/C=C/c1cccc(N(Cc2ccc(-c3cccc(OC(F)(F)F)c3)cc2)C(=O)C(C)C)c1 [Compound 254]
46 | 77 | 0.12 | excellent activity |  | COC(=O)/C=C/c1cccc(N(Cc2ccc(-c3c(OC)cccc3OC)cc2)C(=O)C2CCCCC2)c1 [Compound 256]
47 | 95 | 0.10 | excellent activity |  | COC(=O)/C=C/c1cccc(N(Cc2ccc(-c3c(OC)cccc3OC)cc2)C(=O)C(C)C)c1 [Compound 257]
48 | 57 | 1.07 | excellent activity |  | COC(=O)/C=C/c1cccc(N(Cc2ccc(-c3ccc(N(C)C)cc3)cc2)C(=O)C(C)C)c1 [Compound 260]
49 | 162 | 1.01 |  |  | COC(=O)/C=C/c1cccc(N(Cc2ccc(-c3ccc(N(C)C)cc3)cc2)C(=O)NC(C)C)c1 [Compound 261]
50 | 132 | 1.38 |  |  | COC(=O)/C=C/c1cccc(N(Cc2ccc(-c3ccc(C(C)(C)C)cc3)cc2)C(=O)C2CCCCC2)c1 [Compound 262]
51 | 77 | 1.51 |  |  | COC(=O)/C=C/c1cccc(N(Cc2ccc(-c3cccc(OC)c3)cc2)C(=O)C2CCCCC2)c1 [i]
